Source: patent publication US20110275661A1, “TRICYCLIC NITROGEN COMPOUNDS USED AS ANTIBACTERIALS” (Glaxo Group Limited, priority 2008, published 2011)
Where a name gives a salt, the structure may show the parent alone. Read-outs that look alike come from different tables or passages of the source.

Test system: Mycobacterium tuberculosis H37Rv
Test: Mycobacterium tuberculosis H37Rv Inhibition Assay
Assay type: cell-based
Details: ATCC 25618 / H37Rv, read-out: MIC value
[1] = H37Rv strain (ATCC25618), Middlebrook 7H9+ADC medium, resazurin fluorescence

| Structure (SMILES) | MIC [1] [µg/mL] | MIC [µg/mL] |
| --- | --- | --- |
| Cc1cc(=O)n2c3c1ccc(=O)n3[C@H](CN1CCC(NCc3cc4c(cn3)OCS4)CC1)C2 [Example 4, (1R)-6-methyl-1-({4-[([1,3]oxathiolo[5,4-c]pyridin-6-ylmethyl)amino]-1-piperidinyl}methyl)-1,2-dihydro-4H,9H-imidazo[1,2,3-4]-1,8-naphthyridine-4,9-dione hydrochloride] | < 2 | – |
| Cc1cc(=O)n2c3c1ccc(=O)n3[C@H](CN1CCC(NCc3cc4c(cn3)OCCS4)CC1)C2 [Example 2, (1R)-1-({4-[(2,3-dihydro[1,4]oxathiino[2,3-c]pyridin-7-ylmethyl)amino]-1-piperidinyl}methyl)-6-methyl-1,2-dihydro-4H,9H-imidazo[1,2,3-ij]-1,8-naphthyridine-4,9-dione hydrochloride] | – | < 2 |
| Cc1cc(=O)n2c3c1ccc(=O)n3[C@H](CN1CCC(NCc3cc4c(cn3)OCCO4)CC1)C2 [Example 3, (1R)-1-({4-[(2,3-dihydro[1,4]dioxino[2,3-c]pyridin-7-ylmethyl)amino]-1-piperidinyl}methyl)-6-methyl-1,2-dihydro-4H,9H-imidazo[1,2,3-ij]-1,8-naphthyridine-4,9-dione hydrochloride] | – | > 2.5 |
| Cc1cc(=O)n2c3c1ccc(=O)n3[C@H](CN1CCC(NCc3cc4c(cn3)OCCC4)CC1)C2 [Example 1, (1R)-1-({4-[(3,4-dihydro-2H-pyrano[2,3-c]pyridin-6-ylmethyl)amino]-1-piperidinyl}methyl)-6-methyl-1,2-dihydro-4H,9H-imidazo[1,2,3-4]-1,8-naphthyridine-4,9-dione hydrochloride] | < 2 | – |
